“Also recorded” adds a separate entry of the source.
Columns and labels:
[1] = cited from earlier work
[2] = test system: oligodendrocytes (CNP positive cells); experiment: Oligodendrocyte density (CNP positive cells) in white matter, mouse model of chronic hypoxia; format: in vivo, mice; settings: Hx-BH4 vs Hx; 10.5% FiO2 postnatal day 3 to 11; n=3-6 each
Text: (§1) FIG. 3. Correspondence between human and rodent gestation periods. Regarding WM development, postnatal days 3-11 in mice correspond to the 3rd trimester of human pregnancy. The murine model was used by the inventors to investigate the effects of hypoxia and treatment of hypoxia by BH4. A mouse model of chronic hypoxia during a period that corresponds to the 3rd trimester in human white matter development is described by […], et al ^47 and by Raymond, et al. ^48, both of which are incorporated by reference. Three groups of mice: Normoxic controls (Nx), Hypoxic (Hx), Hypoxic treated with BH4 (Hx-BH4). Hx and Hx-BH4 mice were kept at 10.5% FiO2 from postnatal day 3 to 11-a period of WM development equivalent to the 3rd trimester in humans as illustrated by FIG. 3. BH4 brain levels were quantified and compared between Nx (n=11) and Hx (n=12). Densities of cells expressing CNP, a marker of oligodendrocytes which are cells responsible for myelination, and Caspase3, an apoptosis marker, were compared between all groups (n=3-6 each). Expression of myelin basic protean, a myelination marker, was quantified using Western Blot (n=7-12 each).

[3] = test system: Myelin Basic Protein; experiment: Expression of myelin basic protein (Western blot, immunohistochemistry), mouse model of chronic hypoxia; format: in vivo, mice
Text: as §1

[4] = test system: apoptotic cells (Caspase3 positive); experiment: Apoptotic cell density (Caspase3 positive) in white matter, mouse model of chronic hypoxia; format: in vivo, mice
Text: as §1

[5] = in vivo; cited from earlier work
[6] = test system: WM integrity and damage; settings: in vivo; cited from earlier work

SMILES: C[C@H](O)[C@H](O)[C@H]1CNc2nc(N)[nH]c(=O)c2N1 [BH4, Tetrahydrobiopterin]
- Safety and tolerability in long-term follow-up studies ([1]; humans, wide range of doses): safe and well tolerated
- Teratological effects ([1]; in vivo): no teratological effects have been documented
- Maternal BH4 treatment in pregnant females ([1]; recent trials): efficient and safe
- Effect of BH4 treatment on hypoxia-induced increase of oligodendrocyte density [2]: not limited by BH4 therapy; also recorded: did not limit this effect
- Effect of BH4 treatment on hypoxia-decreased expression of myelin basic protein ([3]; Hx-BH4 vs Hx, p=0.006, 10.5% FiO2 postnatal day 3 to 11, n=7-12 each): mitigated by BH4 therapy; also recorded: increased with BH4 treatment
- Expression of myelin basic protein, Hx-BH4 compared with normoxic controls ([3]; Hx-BH4 vs Nx): no significant difference between normoxic controls (Nx) and hypoxic mice treated with BH4 (Hx-BH4)
- Effect of BH4 treatment on hypoxia-increased WM apoptosis (apoptotic cell density) ([4]; Hx-BH4 vs Hx, p=0.01, 10.5% FiO2 postnatal day 3 to 11, n=3-6 each): mitigate this effect; also recorded: decreased with BH4 treatment
- Apoptotic cell density, Hx-BH4 compared with normoxic controls ([4]; Hx-BH4 vs Nx): no difference in apoptotic cell density between Nx and Hx-BH4
- Placental crossing and fetal tissue distribution [5]: crosses the placenta and distributes throughout fetal tissues, including the brain
- WM integrity and damage in children with phenylketonuria treated early [6]: Improvements of WM integrity and damage

— patent US20180221371A1, “TREATMENT FOR THE FETUS WITH CONGENITAL HEART DISEASE” (CHILDREN'S NATIONAL MEDICAL CENTER, priority 2015, published 2018)
